A value given as a limit tells only on which side of the number the result lay.

The target in the assay is T1, His tagged full-length PTP1B protein (Homo sapiens, UniProt P18031).
T1 construct: made in house
T1 sequence (P18031 with tags, fused parts or gaps): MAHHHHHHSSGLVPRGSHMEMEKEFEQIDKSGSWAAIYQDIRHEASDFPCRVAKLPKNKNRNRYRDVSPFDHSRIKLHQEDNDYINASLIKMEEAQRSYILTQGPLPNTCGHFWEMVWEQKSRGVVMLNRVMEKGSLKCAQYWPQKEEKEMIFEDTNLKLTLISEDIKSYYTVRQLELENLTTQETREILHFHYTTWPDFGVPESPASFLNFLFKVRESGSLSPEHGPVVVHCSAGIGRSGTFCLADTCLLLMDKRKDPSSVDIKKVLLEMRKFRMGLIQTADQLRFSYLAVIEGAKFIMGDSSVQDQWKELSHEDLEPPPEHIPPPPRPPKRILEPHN
The assay can be described thus: Mobility Shift Assay (MSA) used to determine potency of PTP1B inhibitors. The assay is classed as biochemical. Particulars: Table 2. The method, then: The enzymatic assay used to determine activity is a mobility shift assay using a LabChip EZ Reader by Caliper Life Sciences. The enzymatic reaction was carried out in assay buffer (50 mM HEPES pH 7.5, 1 mM EGTA, 10 mM EDTA, 0.01% Tween® 20, and 2 mM DTT). […] The enzyme (at 0.5 nM) was incubated with compound for 10 minutes at room temperature. […] The % inhibition was then used to calculate the IC50 values.
Usually IC50 stands for the point on the concentration scale where inhibition reaches its midpoint. Take `O=C1CN(c2c(O)cc3ccc(CC4CN(S(=O)(=O)C5CC5)C4)cc3c2F)S(=O)(=O)N1` [Compound 256, 5-(7-{[1-(cyclopropanesulfonyl)azetidin-3-yl]methyl}-1-fluoro-3-hydroxynaphthalen-2-yl)-1λ^6,2,5-thiadiazolidine-1,1,3-trione]: the half-maximal inhibitory concentration (IC50) was in the range of 1 to 10 nM. Regarding `O=C1CN(c2c(O)cc3ccc(OCCOC4CCC4)cc3c2F)S(=O)(=O)N1` [Compound 214, 5-{7-[2-(cyclobutyloxy)ethoxy]-1-fluoro-3-hydroxynaphthalen-2-yl}-1λ^6,2,5-thiadiazolidine-1,1,3-trione], the IC50 fell in the range of 1 to 10 nM. `CCCOc1ccc2cc(O)c(N3CC(=O)NS3(=O)=O)c(F)c2c1` [Compound 278, 5-(1-fluoro-3-hydroxy-7-propoxynaphthalen-2-yl)-1λ^6,2,5-thiadiazolidine-1,1,3-trione]: the half-maximal inhibitory concentration (IC50) is 10 to 100 nM.

On to `CC(C)CCOc1ccc2cc(O)c(N3CC(=O)NS3(=O)=O)c(F)c2c1` [Compound 204, 5-[1-fluoro-3-hydroxy-7-(3-methylbutoxy)naphthalen-2-yl]-1λ^6,2,5-thiadiazolidine-1,1,3-trione], for which the IC50 was less than 1 nM. The figure for `[2H]c1c(O)c(N2C([2H])([2H])C(=O)NS2(=O)=O)c(F)c2cc(OC)ccc12` [Compound 106, 5-[1-fluoro-3-hydroxy-7-methoxy(4-^2H)naphthalen-2-yl](4,4-2H2)-1λ^6,2,5-thiadiazolidine-1,1,3-trione] is 1 to 10 nM; for `O=C1CN(c2c(O)cc3ccc(OCC4CCNCC4)cc3c2F)S(=O)(=O)N1` [Compound 114, 5-{1-fluoro-3-hydroxy-7-[(piperidin-4-yl)methoxy]naphthalen-2-yl}-1λ^6,2,5-thiadiazolidine-1,1,3-trione] it is 1 to 10 nM. The figure for `O=C1CN(c2c(O)cc3ccc(C4=CCN(S(=O)(=O)c5ccoc5)C4)cc3c2F)S(=O)(=O)N1` [Compound 312, 5-{1-fluoro-7-[1-(furan-3-sulfonyl)-2,5-dihydro-1H-pyrrol-3-yl]-3-hydroxynaphthalen-2-yl}-1λ^6,2,5-thiadiazolidine-1,1,3-trione] is less than 1 nM. Consider `O=C1CN(c2c(O)cc3ccc(C4=CCOC4)cc3c2F)S(=O)(=O)N1` [Compound 263, 5-[7-(2,5-dihydrofuran-3-yl)-1-fluoro-3-hydroxynaphthalen-2-yl]-1λ^6,2,5-thiadiazolidine-1,1,3-trione], for which the IC50 lay in the range of 10 to 100 nM. As for `COCc1ccc2cc(O)c(N3CC(=O)NS3(=O)=O)c(F)c2c1` [Compound 229, 5-[1-fluoro-3-hydroxy-7-(methoxymethyl)naphthalen-2-yl]-1λ^6,2,5-thiadiazolidine-1,1,3-trione], the figure is 10 to 100 nM; as for `O=C1CN(c2c(O)cc3ccc(OCCN4CCC4)cc3c2F)S(=O)(=O)N1` [Compound 105, 5-{7-[2-(azetidin-1-yl)ethoxy]-1-fluoro-3-hydroxynaphthalen-2-yl}-1λ^6,2,5-thiadiazolidine-1,1,3-trione], 1 to 10 nM; as for `O=C1CN(c2c(O)cc3ccc(C4CC4)cc3c2F)S(=O)(=O)N1` [Compound 236, 5-(7-cyclopropyl-1-fluoro-3-hydroxynaphthalen-2-yl)-1λ^6,2,5-thiadiazolidine-1,1,3-trione], more than 100 nM. Regarding `O=C1CN(c2c(O)cc3ccc(OCCOCC4CC4)cc3c2F)S(=O)(=O)N1` [Compound 212, 5-{7-[2-(cyclopropylmethoxy)ethoxy]-1-fluoro-3-hydroxynaphthalen-2-yl}-1λ^6,2,5-thiadiazolidine-1,1,3-trione], the IC50 was in the range of 1 to 10 nM. The figure for `O=C1CN(c2c(O)cc3ccc(CNCC4CC4)cc3c2F)S(=O)(=O)N1` [Compound 161, 5-(7-{[(cyclopropylmethyl)amino]methyl}-1-fluoro-3-hydroxynaphthalen-2-yl)-1λ^6,2,5-thiadiazolidine-1,1,3-trione] is 10 to 100 nM; for `O=C1CN(c2c(O)cc3ccc(OCCCC(F)(F)F)cc3c2F)S(=O)(=O)N1` [Compound 158, 5-[1-fluoro-3-hydroxy-7-(4,4,4-trifluorobutoxy)naphthalen-2-yl]-1λ^6,2,5-thiadiazolidine-1,1,3-trione] it is 1 to 10 nM; for `O=C1CN(c2c(O)cc3ccc(OCC4CC(F)(F)C4)cc3c2F)S(=O)(=O)N1` [Compound 235, 5-{7-[(3,3-difluorocyclobutyl)methoxy]-1-fluoro-3-hydroxynaphthalen-2-yl}-1λ^6,2,5-thiadiazolidine-1,1,3-trione] it is less than 1 nM. The figure for `CS(=O)(=O)N1CC(Nc2ccc3cc(O)c(N4CC(=O)NS4(=O)=O)c(F)c3c2)C1` [Compound 128, 5-(1-fluoro-3-hydroxy-7-{[1-(methanesulfonyl)azetidin-3-yl]amino}naphthalen-2-yl)-1λ^6,2,5-thiadiazolidine-1,1,3-trione] is 1 to 10 nM. `O=C1CN(c2c(O)cc3ccc(NCC4CC4)cc3c2F)S(=O)(=O)N1` [Compound 202, 5-{7-[(cyclopropylmethyl)amino]-1-fluoro-3-hydroxynaphthalen-2-yl}-1λ^6,2,5-thiadiazolidine-1,1,3-trione]: the concentration for half-maximal inhibition (IC50) lay within 10 to 100 nM. As for `O=C1CN(c2c(O)cc3ccc(C(=O)NCC4CC4)cc3c2F)S(=O)(=O)N1` [Compound 136, N-(cyclopropylmethyl)-8-fluoro-6-hydroxy-7-(1,1,4-trioxo-1λ^6,2,5-thiadiazolidin-2-yl)naphthalene-2-carboxamide], the figure is 10 to 100 nM; as for `CCNCCCc1ccc2cc(O)c(N3CC(=O)NS3(=O)=O)c(F)c2c1` [Compound 140, 5-{7-[3-(ethylamino)propyl]-1-fluoro-3-hydroxynaphthalen-2-yl}-1λ^6,2,5-thiadiazolidine-1,1,3-trione], 10 to 100 nM; as for `N#CCCCCS(=O)(=O)N1CC=C(c2ccc3cc(O)c(N4CC(=O)NS4(=O)=O)c(F)c3c2)C1` [Compound 293, 5-{3-[8-fluoro-6-hydroxy-7-(1,1,4-trioxo-1λ^6,2,5-thiadiazolidin-2-yl)naphthalen-2-yl]-2,5-dihydro-1H-pyrrole-1-sulfonyl}pentanenitrile], less than 1 nM.

`CC(C)S(=O)(=O)N1CC=C(c2ccc3cc(O)c(N4CC(=O)NS4(=O)=O)c(F)c3c2)C1` [Compound 296, 5-{1-fluoro-3-hydroxy-7-[1-(propane-2-sulfonyl)-2,5-dihydro-1H-pyrrol-3-yl]naphthalen-2-yl}-1λ^6,2,5-thiadiazolidine-1,1,3-trione]: the IC50 was less than 1 nM. Turning to `O=C(COc1ccc2cc(O)c(N3CC(=O)NS3(=O)=O)c(F)c2c1)NCCC1CC1` [Compound 281, N-(2-cyclopropylethyl)-2-{[8-fluoro-6-hydroxy-7-(1,1,4-trioxo-1λ^6,2,5-thiadiazolidin-2-yl)naphthalen-2-yl]oxy}acetamide], the 50% inhibitory concentration (IC50) lay within 10 to 100 nM. `COCC1(CCOc2ccc3cc(O)c(N4CC(=O)NS4(=O)=O)c(F)c3c2)CC1` [Compound 160, 5-(1-fluoro-3-hydroxy-7-{2-[1-(methoxymethyl)cyclopropyl]ethoxy}naphthalen-2-yl)-1λ^6,2,5-thiadiazolidine-1,1,3-trione]: the IC50 lay within 1 to 10 nM. As for `CNCCOc1ccc2cc(O)c(N3CC(=O)NS3(=O)=O)c(F)c2c1` [Compound 143, 5-{1-fluoro-3-hydroxy-7-[2-(methylamino)ethoxy]naphthalen-2-yl}-1λ^6,2,5-thiadiazolidine-1,1,3-trione], the IC50 fell in the range of 10 to 100 nM. As for `O=C1CN(c2c(O)cc3ccc(C4=CCNC4)cc3c2F)S(=O)(=O)N1` [Compound 265, 5-[7-(2,5-dihydro-1H-pyrrol-3-yl)-1-fluoro-3-hydroxynaphthalen-2-yl]-1λ^6,2,5-thiadiazolidine-1,1,3-trione], the figure is 1 to 10 nM; as for `CC(C)CCNc1ccc2c(F)c(O)c(N3CC(=O)NS3(=O)=O)c(F)c2c1` [Compound 148, 5-{1,4-difluoro-3-hydroxy-7-[(3-methylbutyl)amino]naphthalen-2-yl}-1λ^6,2,5-thiadiazolidine-1,1,3-trione], more than 100 nM. As for `CC(C)C/C=C/c1ccc2cc(O)c(N3CC(=O)NS3(=O)=O)c(F)c2c1` [Compound 240, 5-{1-fluoro-3-hydroxy-7-[(1E)-4-methylpent-1-en-1-yl]naphthalen-2-yl}-1λ^6,2,5-thiadiazolidine-1,1,3-trione], the figure is 1 to 10 nM; as for `O=C1CN(c2c(O)c(Br)c3ccc(-c4ccn(S(=O)(=O)C5CC5)c4)cc3c2F)S(=O)(=O)N1` [Compound 231B, 5-{4-bromo-7-[1-(cyclopropanesulfonyl)-1H-pyrrol-3-yl]-1-fluoro-3-hydroxynaphthalen-2-yl}-1λ^6,2,5-thiadiazolidine-1,1,3-trione], 1 to 10 nM; as for `O=C1CN(c2c(O)cc3ccc(C4=CCN(C(=O)C5CC5)C4)cc3c2F)S(=O)(=O)N1` [Compound 237, 5-{7-[1-(cyclopropanecarbonyl)-2,5-dihydro-1H-pyrrol-3-yl]-1-fluoro-3-hydroxynaphthalen-2-yl}-1λ^6,2,5-thiadiazolidine-1,1,3-trione], less than 1 nM. Take `O=C1CN(c2c(O)cc3ccc(OCC(F)F)cc3c2F)S(=O)(=O)N1` [Compound 302, 5-[7-(2,2-difluoroethoxy)-1-fluoro-3-hydroxynaphthalen-2-yl]-1λ^6,2,5-thiadiazolidine-1,1,3-trione]: the IC50 was in the range of 10 to 100 nM.
